Assay results published in the NIST ThermoML archive (doi:10.1016/j.jct.2019.03.024).
± gives the expanded uncertainty stated by the source.

Experiments:
[1] = 298.15 K, 86.5 kPa, Liquid
[2] = refractive index (Na D-line) (dimensionless); details: 298.15 K; 86.5 kPa; Liquid; Standard Abbe refractometry

CCCCCCCCn1cc[n+](C)c1.[Br-] [1-methyl-3-octylimidazolium bromide]
speed of sound ([1]; Frequency=3 MHz, Single path-length method): 1561.8 ± 2.2 m/s
mass density ([1]; Vibrating tube method): 1172.98 ± 2.3 kg/m3
refractive index [2]: 1.5217 ± 0.02
